Test results as given in ChEMBL document CHEMBL4373684, “Synthesis of new lophine-carbohydrate hybrids as cholinesterase inhibitors: cytotoxicity evaluation and molecular modeling” (Medchemcomm, 2019).

What was measured:
[1] = in vitro; settings: PAMPA
Description: Effective permeability of compound incubated for 8 hrs by PAMPA

[2] = in vitro; settings: PAMPA; remark: listed apart in the source
Description: Fraction absorbed of the compound by PAMPA

[3] = target: T1, Acetylcholinesterase (Mus musculus, UniProt P21836); assay: Inhibition of AChE in Swiss mouse brain using acetylthiocholine iodide as substrate incubated for 10 mins followed by substrate addition and measured after 10 mins; type: tissue-based
T1 sequence (P21836 whole entry): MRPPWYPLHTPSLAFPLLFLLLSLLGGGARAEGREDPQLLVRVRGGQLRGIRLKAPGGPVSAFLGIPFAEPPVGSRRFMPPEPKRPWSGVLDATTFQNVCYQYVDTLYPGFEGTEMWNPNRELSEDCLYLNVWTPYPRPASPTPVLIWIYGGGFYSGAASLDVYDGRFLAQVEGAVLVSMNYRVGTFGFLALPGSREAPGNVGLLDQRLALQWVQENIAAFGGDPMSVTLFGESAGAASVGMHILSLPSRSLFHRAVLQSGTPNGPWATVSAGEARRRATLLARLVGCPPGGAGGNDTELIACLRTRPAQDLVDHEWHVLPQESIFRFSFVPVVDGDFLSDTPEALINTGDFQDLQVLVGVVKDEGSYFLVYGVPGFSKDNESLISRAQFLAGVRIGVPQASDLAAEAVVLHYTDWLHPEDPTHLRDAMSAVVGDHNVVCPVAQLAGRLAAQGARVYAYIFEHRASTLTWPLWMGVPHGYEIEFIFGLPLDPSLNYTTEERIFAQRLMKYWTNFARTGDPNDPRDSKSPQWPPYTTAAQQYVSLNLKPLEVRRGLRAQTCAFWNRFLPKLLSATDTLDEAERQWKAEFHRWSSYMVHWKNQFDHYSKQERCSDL

[4] = Selectivity index, ratio of IC50 for monkey Vero cells to IC50 for inhibition of BuChE in Swiss mouse serum
[5] = Selectivity index, ratio of IC50 for human HepG2 cells to IC50 for inhibition of BuChE in Swiss mouse serum
[6] = Selectivity index, ratio of IC50 for rat C6 cells to IC50 for inhibition of BuChE in Swiss mouse serum
[7] = target: Cholinesterase (Mus musculus, UniProt Q03311)
Description: Inhibition of BuChE in Swiss mouse serum using butyrylthiocholine iodide as substrate incubated for 10 mins followed by substrate addition and measured after 10 mins

[8] = tested on: Vero; assay: cells; settings: Chlorocebus sabaeus, 24 h
Description: Cytotoxicity against monkey Vero cells assessed as reduction in cell viability incubated for 24 hrs by MTT assay

[9] = tested on: HepG2; assay: cells; settings: Homo sapiens, HepG2, 24 h
Description: Cytotoxicity against human HepG2 cells assessed as reduction in cell viability incubated for 24 hrs by MTT assay

[10] = tested on: C6; assay: cells; settings: Rattus norvegicus, C6, 24 h
Description: Cytotoxicity against rat C6 cells assessed as reduction in cell viability incubated for 24 hrs by MTT assay

[11] = Selectivity index, ratio of IC50 for monkey Vero cells to IC50 for inhibition of AChE in Swiss mouse brain
[12] = Selectivity index, ratio of IC50 for human HepG2 cells to IC50 for inhibition of AChE in Swiss mouse brain
[13] = Selectivity index, ratio of IC50 for rat C6 cells to IC50 for inhibition of AChE in Swiss mouse brain

Cholinesterase, sequence (Q03311 whole entry): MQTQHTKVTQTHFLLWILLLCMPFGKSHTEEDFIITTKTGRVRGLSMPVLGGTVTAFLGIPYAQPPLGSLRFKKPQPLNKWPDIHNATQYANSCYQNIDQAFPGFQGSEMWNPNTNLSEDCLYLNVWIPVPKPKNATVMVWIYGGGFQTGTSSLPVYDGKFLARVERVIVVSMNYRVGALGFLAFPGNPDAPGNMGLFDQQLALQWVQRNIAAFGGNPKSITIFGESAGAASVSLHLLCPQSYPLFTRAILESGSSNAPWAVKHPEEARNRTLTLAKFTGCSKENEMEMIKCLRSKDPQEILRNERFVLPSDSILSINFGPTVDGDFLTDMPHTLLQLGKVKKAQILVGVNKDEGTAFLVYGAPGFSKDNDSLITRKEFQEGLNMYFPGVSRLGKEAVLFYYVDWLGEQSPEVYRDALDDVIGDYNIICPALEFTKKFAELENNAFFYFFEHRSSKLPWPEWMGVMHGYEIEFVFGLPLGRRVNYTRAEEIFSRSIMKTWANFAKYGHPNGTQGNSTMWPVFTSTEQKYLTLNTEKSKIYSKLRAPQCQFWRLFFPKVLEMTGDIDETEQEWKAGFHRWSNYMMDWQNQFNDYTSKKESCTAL

Row | SMILES | Fa [2] | IC50 [3] | IC50 [7] | further results
1 | CO/N=C(\C(=O)N[C@@H]1C(=O)N2C(C(=O)O)=C(CSc3nc(=O)c(=O)[nH]n3C)CS[C@H]12)c1csc(N)n1 [CEFTRIAXONE] | 99.2% |  |  | Papp at 8 h [1]: 0.38 ×10⁻⁶ cm/s
2 | CCn1cc(C(=O)O)c(=O)c2cc(F)c(N3CCNCC3)cc21 [NORFLOXACIN] | 23.5% |  |  | 
3 | CC1(C)O[C@H]2[C@@H](O1)[C@@H](CNCCCCCCCn1c(-c3ccccc3)nc(-c3ccccc3)c1-c1ccccc1)O[C@@H]1OC(C)(C)O[C@@H]12 |  | > 10 µM | 0.62 µM | Ratio IC50 [4]: 1400; Ratio IC50 [5]: 1400; Ratio IC50 [6]: 1400
4 | CC1(C)O[C@H]2[C@@H](O1)[C@@H](CNCCCCCCn1c(-c3ccccc3)nc(-c3ccccc3)c1-c1ccccc1)O[C@@H]1OC(C)(C)O[C@@H]12 | 5.9% | > 10 µM | 0.17 µM | IC50 [8]: > 250 µM; IC50 [9]: > 250 µM; IC50 [10]: > 250 µM; Papp at 8 h [1]: 0.54 ×10⁻⁶ cm/s
5 | c1ccc(-c2nc(-c3ccccc3)c(-c3ccccc3)[nH]2)cc1 |  | > 10 µM | > 10 µM | 
6 | O=c1ccc2ccccc2o1 [COUMARIN] | 87.9% |  |  | Papp at 8 h [1]: 26.2 ×10⁻⁶ cm/s
7 | CNC(=C[N+](=O)[O-])NCCSCc1ccc(CN(C)C)o1 [RANITIDINE] | 87.3% |  |  | 
8 | CC1(C)O[C@H]2O[C@H](CNCCCCCCCn3c(-c4ccccc4)nc(-c4ccccc4)c3-c3ccccc3)[C@H](O)[C@H]2O1 |  | > 10 µM | 0.4 µM | 
9 | CC(C)NCC(O)COc1ccc(CC(N)=O)cc1 (centres undefined) [ATENOLOL] | 100% |  |  | 
10 | CO[C@@H]1O[C@H](CNCCCCCCCn2c(-c3ccccc3)nc(-c3ccccc3)c2-c2ccccc2)[C@H]2OC(C)(C)O[C@@H]12 | 20.4% | 2.75 µM | 0.5 µM | Ratio IC50 [11]: 90; Ratio IC50 [12]: 90; Ratio IC50 [13]: 90; Ratio IC50 [4]: 500; Ratio IC50 [5]: 500; Ratio IC50 [6]: 500; IC50 [8]: > 250 µM; IC50 [9]: > 250 µM; IC50 [10]: > 250 µM; Papp at 8 h [1]: 2.28 ×10⁻⁶ cm/s
11 | CC1(C)O[C@H]2O[C@H](CNCCCCn3c(-c4ccccc4)nc(-c4ccccc4)c3-c3ccccc3)[C@H](O)[C@H]2O1 |  | > 10 µM | 0.3 µM | 
12 | CC1(C)O[C@H]2O[C@H](CNCCCCCn3c(-c4ccccc4)nc(-c4ccccc4)c3-c3ccccc3)[C@H](O)[C@H]2O1 |  | > 10 µM | 0.28 µM | IC50 [8]: 115 µM; IC50 [9]: 116 µM; IC50 [10]: > 250 µM
13 | CC1(C)O[C@H]2O[C@H](CNCCCCCCn3c(-c4ccccc4)nc(-c4ccccc4)c3-c3ccccc3)[C@H](O)[C@H]2O1 |  | > 10 µM | 0.71 µM | 
14 | CO[C@@H]1O[C@H](CNCCCCCCn2c(-c3ccccc3)nc(-c3ccccc3)c2-c2ccccc2)[C@H]2OC(C)(C)O[C@@H]12 |  | > 10 µM | 0.4 µM | 
15 | CC1(C)O[C@H]2O[C@H](CNCCCCCCCCn3c(-c4ccccc4)nc(-c4ccccc4)c3-c3ccccc3)[C@H](O)[C@H]2O1 |  | > 10 µM | 1.3 µM | 
